Legend:
human monocytes = test: CD69 expression by ionomycin/PMA-activated human monocytes (flow cytometry); assay type: cell-based; conditions: CBD 5 μg/mL or greater, added 15 minutes before 4 hours stimulation with ionomycin 1 μg/ml and PMA 50 ng/ml
Experimental: (§1) A further study was performed to determine the effect of CBD on the expression of CD69 (a marker of leukocyte activation) by human lymphocytes and monocytes that had been activated by ionomycin (1 μg/mL) and phorbol myristate acetate (PMA, 50 ng/mL) in vitro.
(§2) Mononuclear cells from a healthy human donor were isolated using a gradient method with Ficoll-Pacque™ Healthcare. Cells were washed with RPMI media with 10% FCS and 1% Penn/Strept and then placed in 12 well trays at 1×10^6 cells/mL and stimulated for 4 hours with Ionomycin 1 μg/ml and 50 ng/ml PMA. CBD was added 15 minutes before using DMSO as a vehicle. After the stimulation, cells were washed again and resuspended in 150 μL staining buffer (PBS+1% BSA). An optimized protocol for surface marker staining was used. CD69 was added to the cells, which were then incubated for 15 minutes in the dark at room temperature. After this, cells were washed twice with PBS+1% BSA and resuspended in 150 μL buffer. Cells were kept at 4 degrees prior to being analyzed in a FACSCanto™ II cytometer. Cell populations were determined by FSC/SSC. The number of events were at least 2000 events per gate. […] The data was analyzed with FlowJo X. Doublets were discriminated with an exclusion gate of FSC-A/FSC-W. Gating for lymphocytes and monocytes was determined by FSC-A/SSC-A. The frequency and expression of CD69-FITC was analyzed in its FITC channel.

H9c2 cells [1] = test: Angiotensin II-mediated cardiomyocyte hypertrophy in H9c2 cells, cell surface area (calcein, confocal microscopy); assay type: cell-based; conditions: compared with Ang group
Experimental: A study was conducted to determine the effect of CBD in a model of cardiomyocyte hypertrophy, using H9c2 cells, a cardiomyocyte cell line, in vitro. In this study, H9c2 cells grown in a culture medium were divided into four groups. To one group nothing was added (“Control”). To the second, third and fourth groups, Angiotensin II was added to the culture medium (“Ang”) to give a final concentration of 1.0 μM. The Angiotensin II was added to induce hypertrophy. To the third group, CBD was also added to give a concentration of 0.1 μM (“Ang+CBD 0.1 μM”). Finally, to the fourth group, CBD was also added to give a concentration of 1 μM (“Ang+CBD 1 μM”).
FIG. 1 contains representative confocal microscopy images of the H9c2 cells in each group. The images were obtained using a model with the same parameters and cell staining, to determine the surface area per cell, was achieved using calcein fluorescent dye. […] The results are summarized in FIG. 2, wherein each group comprises at least 3 independent replicates per group.

[2] = taken orally; background statement; cited from earlier work
H9c2 cells [3] = test: Repeated H9c2 hypertrophy study: BNP and collagen mRNA, mitochondrial ROS (MitoSOX); assay type: cell-based
Experimental: The study was repeated using H9c2 cells grown in a culture medium divided into seven groups. To one group nothing was added (“CTRL”). To the second, fourth, fifth, sixth, and seventh groups, Angiotensin II was added to the culture medium (“ANG”) to give a final concentration of 1.0 μM. The Angiotensin II was added to induce hypertrophy. To the third group, CBD was added to give a concentration of 0.1 μM (“CBD 0.1 μM”) as an additional control group. CBD was also added to (a) the fourth group to give a concentration of 0.001 μM (“ANG+CBD 0.001 μM”), (b) the fifth group to give a concentration of 0.01 μM (“ANG+CBD 0.01 μM”), (c) the sixth group to give a concentration of 0.1 μM (“ANG+CBD 0.1 μM”), and, finally, (d) the seventh group to give a concentration of 1 μM (“ANG+CBD 1 μM”).

[4] = tested on: mouse model of non-ischemic heart failure (HF); test: Mouse model of non-ischemic heart failure (L-NAME/NaCl + Angiotensin II); assay type: in vivo, C57BL/6 laboratory mice; conditions: for cardiac fibrosis (Masson's Trichrome) / myocyte area (hypertrophy): 4 weeks, vs Angiotensin group; for mRNA expression of BNP in heart tissue (qPCR): compared with ANG group
Experimental: Tests were done to evaluate the potential for CBD in treating or preventing heart failure in a mouse model of non-ischemic heart failure (HF) illustrated in FIG. 5.
Three to four week old male C57BL/6 laboratory mice were used in the experiments. The mice were divided into four groups. A first group (the Control) received nothing. The second group of mice (Angiotensin) was provided with water containing 0.1 mg/ml of N(gamma)-nitro-L-arginine methyl ester (L-NAME) and 1% sodium chloride (NaCl) ad libitum for one week. Following this, 0.7 mg/kg/week of Angiotensin II was administered subcutaneously for 4 weeks using osmotic pumps. The third group and fourth group were subjected to the same protocol as the second group, however, the third group (ANG+CBD 1 mg/kg) and fourth group (ANG+CBD 10 mg/kg) also received synthetic CBD subcutaneously in an amount of 1 mg/kg and 10 mg/kg, respectively, once every 3 days during the same four week period. The CBD compositions used in this experiment consisted of CBD dissolved in PEG400.
After four weeks of treatment, cardiac tissue was evaluated for fibrosis and myocyte hypertrophy and changes in remodeling and inflammation biomarkers.

human lymphocytes = test: CD69 expression by ionomycin/PMA-activated human lymphocytes (flow cytometry); assay type: cell-based; conditions: CBD 5 μg/mL or greater, added 15 minutes before 4 hours stimulation with ionomycin 1 μg/ml and PMA 50 ng/ml
Experimental: as §1, §2

CB2 receptor [5] = biological target: T1, CB2 receptor (Homo sapiens, UniProt P34972); conditions: literature (Proc Natl Acad Sci USA 2008); cited from earlier work
T1 sequence (P34972 whole entry): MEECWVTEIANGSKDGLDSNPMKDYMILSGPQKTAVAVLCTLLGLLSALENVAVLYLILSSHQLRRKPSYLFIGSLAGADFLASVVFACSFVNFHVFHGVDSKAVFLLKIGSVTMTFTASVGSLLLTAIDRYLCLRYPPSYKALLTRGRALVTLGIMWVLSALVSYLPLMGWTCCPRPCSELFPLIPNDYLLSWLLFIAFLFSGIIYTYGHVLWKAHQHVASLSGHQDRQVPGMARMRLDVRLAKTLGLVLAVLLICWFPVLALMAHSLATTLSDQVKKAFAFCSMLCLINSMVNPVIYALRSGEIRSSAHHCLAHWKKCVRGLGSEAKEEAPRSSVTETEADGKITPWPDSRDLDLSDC

CB2 receptor [6] = biological target: T1, CB2 receptor; conditions: literature (Proc Natl Acad Sci USA 2008); cited from earlier work; remark: listed apart in the source
[7] = ANG+CBD 1 μM compared to ANG group
[8] = Angiotensin II 1.0 μM + CBD 0.001, 0.01, 0.1, 1 μM
[9] = CBD 1 mg/kg body weight subcutaneously
[10] = CBD 1 mg/kg subcutaneously once every 3 days
[11] = CBD 10 mg/kg subcutaneously once every 3 days

Compound: C=C(C)[C@@H]1CCC(C)=C[C@H]1c1c(O)cc(CCCCC)cc1O [CBD, cannabidiol]
- level of expression of CD69 by monocytes (human monocytes): reduced the level of expression of CD69
- cell surface area of H9c2 cells (H9c2 cells [1]; Angiotensin II 1.0 μM + CBD 0.1 μM): significantly smaller
- cell surface area of H9c2 cells (H9c2 cells [1]; Angiotensin II 1.0 μM + CBD 1 μM): significantly smaller
- overall bioavailability [2]: less than 10%
- mRNA level of expression of collagen (H9c2 cells [3]; ANG+CBD 0.1 μM compared to ANG group): significantly reduced
- mRNA level of expression of BNP (H9c2 cells [3]; [7]): significantly reduced
- mRNA level of expression of collagen (H9c2 cells [3]; [7]): significantly reduced
- mRNA level of expression of BNP (H9c2 cells [3]; [8]): dose-dependent reduction
- mRNA level of expression of collagen (H9c2 cells [3]; [8]): dose-dependent reduction
- Mitochondrial reactive oxygen species (ROS, MitoSOX) (H9c2 cells [3]; Angiotensin II 1.0 μM + CBD at different doses): reduced down to control levels
- mRNA expression of IL10 [4, 9]: significantly increased
- mRNA expression of pro-inflammatory cytokine IL6 [4, 9]: significantly decreased
- cardiac fibrosis (Masson's Trichrome) [4, 10]: effective to reduce
- myocyte area (hypertrophy) [4, 10]: effective to reduce
- mRNA expression of BNP in heart tissue (qPCR) ([4]; CBD 1 mg/kg subcutaneously): significant reduction
- mRNA expression of pro-inflammatory cytokine IL6 ([4]; CBD 10 mg/kg body weight subcutaneously): significantly decreased
- cardiac fibrosis (Masson's Trichrome) [4, 11]: effective to reduce
- myocyte area (hypertrophy) [4, 11]: effective to reduce
- mRNA expression of BNP in heart tissue (qPCR) ([4]; CBD 10 mg/kg subcutaneously): significant reduction
- mRNA expression of pro-inflammatory cytokine IL1β ([4]; CBD subcutaneously, dose not given): trend to be reduced to control levels
- level of expression of CD69 by lymphocytes (human lymphocytes): reduced the level of expression of CD69

Compound: C=C1CC/C=C(\C)CC[C@@H]2[C@@H]1CC2(C)C [β-caryophyllene, trans-(1R,9S)-8-Methylene-4,11,11-trimethylbicyclo[7.2.0]undec-4-ene]
- functional activity at CB2 (CB2 receptor [5]): functional CB2 agonist
- binding to the CB2 receptor (CB2 receptor [6]): selectively binds to the CB2 receptor

From US12642806B2, “Cannabidiol compositions for use in treating heart conditions” (CARDIOL THERAPEUTICS INC., priority 2019, dated 2026)
